# Molecular target: T1, Tm‐mPPase (Thermotoga maritima membrane pyrophosphatase) (Thermotoga maritima, UniProt Q9S5X0)
# T1 construct: gene hppA; recombinant in E. coli C41(DE3), assayed in inverted membrane vesicles; homodimer, subunit mass 77 kDa
# T1 sequence (Q9S5X0 1-726): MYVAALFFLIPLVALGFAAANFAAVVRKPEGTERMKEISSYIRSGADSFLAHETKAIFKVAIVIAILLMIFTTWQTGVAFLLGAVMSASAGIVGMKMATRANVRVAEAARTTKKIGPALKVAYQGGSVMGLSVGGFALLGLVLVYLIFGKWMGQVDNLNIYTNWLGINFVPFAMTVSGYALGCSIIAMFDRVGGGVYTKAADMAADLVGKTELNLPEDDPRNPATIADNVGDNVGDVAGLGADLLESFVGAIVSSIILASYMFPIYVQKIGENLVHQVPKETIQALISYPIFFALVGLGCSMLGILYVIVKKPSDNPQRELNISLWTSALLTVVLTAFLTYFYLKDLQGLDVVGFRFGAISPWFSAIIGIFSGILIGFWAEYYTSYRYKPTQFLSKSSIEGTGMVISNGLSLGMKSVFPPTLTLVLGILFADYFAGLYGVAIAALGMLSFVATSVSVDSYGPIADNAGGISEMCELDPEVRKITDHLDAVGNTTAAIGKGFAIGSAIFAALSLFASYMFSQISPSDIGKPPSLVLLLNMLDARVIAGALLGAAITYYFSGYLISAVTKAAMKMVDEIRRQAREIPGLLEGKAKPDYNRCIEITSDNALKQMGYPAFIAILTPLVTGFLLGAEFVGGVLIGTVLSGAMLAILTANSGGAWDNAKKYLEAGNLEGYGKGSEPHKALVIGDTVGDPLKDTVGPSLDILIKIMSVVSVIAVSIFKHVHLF
# Experiment: inhibition of PPi hydrolysis, active-site titration in inverted membrane vesicles, Pi analyzer
# Assay type: biochemical
# Settings: 25°C, pH 7.2, 5 mM MgCl2, 100 mM NaCl, no K+, 8 μM PPi; competitive; tight-binding fit; apparent, not corrected for substrate; read-out: K i ^app
structure (smiles),measurement,value
NC(P(=O)(O)O)P(=O)(O)O [AMDP],Ki,5 ± 2 nM

# Reference: publication PMC9405524, “Pre‐steady‐state kinetics and solvent isotope effects support the “billiard‐type” transport mechanism in Na ^+‐translocating pyrophosphatase” (Protein Science : A Publication of the Protein Society, 2022)
